For series [1], the system named is HEK293. In words: cells. It counts as functional, cell-based. The settings on record: Homo sapiens.
The test system of series [2] is HEK293. In words: NOD2 signaling inhibitors in MDP-stimulated cells, cell-based, uHTS, luminescence (AID 2001). The settings on record: Homo sapiens. The class given is functional.
In series [3] the test system is HEK293. In words: cells. The class given is functional, cell-based. The settings on record: Homo sapiens. This is another data set of the same source.
In series [4] the test system is HEK293. In words: cells. The settings on record: Homo sapiens.
Series [5] deals with T1, Nucleotide-binding oligomerization domain-containing protein 1 (Homo sapiens, UniProt Q9Y239).
T1 sequence (Q9Y239 whole entry): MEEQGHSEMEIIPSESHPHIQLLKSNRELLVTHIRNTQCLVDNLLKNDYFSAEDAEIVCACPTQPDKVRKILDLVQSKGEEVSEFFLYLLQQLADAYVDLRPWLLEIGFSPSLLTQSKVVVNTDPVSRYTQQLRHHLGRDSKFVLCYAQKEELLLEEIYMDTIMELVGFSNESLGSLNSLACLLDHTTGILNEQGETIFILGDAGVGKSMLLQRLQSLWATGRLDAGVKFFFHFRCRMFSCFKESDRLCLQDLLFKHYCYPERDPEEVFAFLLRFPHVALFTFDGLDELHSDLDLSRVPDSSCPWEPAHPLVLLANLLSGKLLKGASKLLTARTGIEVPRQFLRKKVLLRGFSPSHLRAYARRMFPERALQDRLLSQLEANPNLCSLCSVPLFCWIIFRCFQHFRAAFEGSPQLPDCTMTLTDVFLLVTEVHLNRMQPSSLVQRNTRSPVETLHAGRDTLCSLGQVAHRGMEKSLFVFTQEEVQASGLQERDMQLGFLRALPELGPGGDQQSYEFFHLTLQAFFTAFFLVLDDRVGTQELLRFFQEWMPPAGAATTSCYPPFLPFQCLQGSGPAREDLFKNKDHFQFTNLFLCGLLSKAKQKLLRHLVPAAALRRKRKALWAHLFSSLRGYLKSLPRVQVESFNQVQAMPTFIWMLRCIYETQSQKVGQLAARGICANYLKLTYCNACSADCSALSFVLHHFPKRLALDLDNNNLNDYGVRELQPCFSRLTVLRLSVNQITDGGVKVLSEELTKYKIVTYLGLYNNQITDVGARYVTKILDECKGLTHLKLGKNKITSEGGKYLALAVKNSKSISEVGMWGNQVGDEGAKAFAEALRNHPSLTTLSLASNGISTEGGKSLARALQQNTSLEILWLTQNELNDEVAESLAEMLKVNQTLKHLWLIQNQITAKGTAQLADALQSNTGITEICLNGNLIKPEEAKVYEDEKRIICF
In words: NOD1 signaling inhibitors, SAR follow-up, revised (AID 2333). It counts as functional.

Series [6] deals with HEK293. In words: NOD1 signaling inhibitors, primary screen, cell-based, luminescence, uHTS (AID 1578). It counts as functional. The settings on record: Homo sapiens.
The target in another series is Tumor necrosis factor (Homo sapiens, UniProt P01375). In words: TNFa-triggered NF-kB activation inhibitors, SAR follow-up, cell-based, revised (AID 2337). It counts as functional.
Series [7] in a line: inhibitors of intracellular T. cruzi replication, confirmation, NIH3T3 host cells, beta-gal luminescence (AID 2044).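 Also: intracellular parasites grown in NIH/3T3 mouse fibroblasts as host cells; luminescent beta-galactosidase reporter signal from transgenic T. cruzi replicating inside host cells; inhibitors lower the luminescence signal.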 The class given is functional, cell-based.
The target in series [8] is T2, Short transient receptor potential channel 4 (Mus musculus, UniProt Q9QUQ5).
T2 sequence (Q9QUQ5 whole entry): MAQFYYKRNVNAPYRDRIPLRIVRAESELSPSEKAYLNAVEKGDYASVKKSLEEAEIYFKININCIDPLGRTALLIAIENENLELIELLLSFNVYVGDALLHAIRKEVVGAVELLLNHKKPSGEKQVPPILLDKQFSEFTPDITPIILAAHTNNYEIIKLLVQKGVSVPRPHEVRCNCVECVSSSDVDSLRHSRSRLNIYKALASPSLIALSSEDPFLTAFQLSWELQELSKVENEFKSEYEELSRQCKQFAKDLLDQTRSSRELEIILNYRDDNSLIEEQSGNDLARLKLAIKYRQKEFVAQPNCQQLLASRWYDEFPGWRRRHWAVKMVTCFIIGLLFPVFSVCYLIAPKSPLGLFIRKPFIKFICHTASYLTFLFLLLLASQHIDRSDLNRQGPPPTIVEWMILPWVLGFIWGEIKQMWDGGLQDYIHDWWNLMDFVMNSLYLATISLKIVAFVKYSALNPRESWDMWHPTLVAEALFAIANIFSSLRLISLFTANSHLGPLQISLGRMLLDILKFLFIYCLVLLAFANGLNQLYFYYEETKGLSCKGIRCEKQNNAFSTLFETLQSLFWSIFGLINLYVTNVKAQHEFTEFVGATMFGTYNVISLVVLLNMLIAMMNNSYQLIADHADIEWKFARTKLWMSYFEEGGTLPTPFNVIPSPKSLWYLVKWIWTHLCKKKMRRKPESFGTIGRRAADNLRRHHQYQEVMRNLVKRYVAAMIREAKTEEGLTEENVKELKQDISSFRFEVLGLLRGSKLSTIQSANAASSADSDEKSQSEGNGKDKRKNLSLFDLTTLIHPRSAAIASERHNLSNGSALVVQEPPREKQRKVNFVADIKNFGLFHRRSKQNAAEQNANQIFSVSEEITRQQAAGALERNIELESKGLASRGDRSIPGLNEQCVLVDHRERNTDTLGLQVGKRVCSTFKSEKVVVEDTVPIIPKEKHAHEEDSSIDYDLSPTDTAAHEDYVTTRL
In words: mouse TRPC4 channel inhibitors, dose response, cell-based, HEK293 TRPC4/mu-opioid, Fluo-4 calcium (AID 434942).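 Also: potency of inhibitors blocking the TRPC4 calcium response.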 The class given is functional.

Series [9] is described as follows: cytotoxicity toward NIH3T3 fibroblasts, dose response, counter-screen, cell-based, ATP luminescence, mouse fibroblasts (AID 2010).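 Also: cells exposed to compound for about 90 hours before reading.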 The class given is functional. For orientation: A counterscreen serves to expose hits that act by an unwanted route or on another target.
Series [10] has as its target T3, COUP transcription factor 2 (Homo sapiens, UniProt P24468).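 Also: HEK293 cells transiently cotransfected with COUP-TFII expression vector and reporter; luciferase reporter luminescence driven by COUP-TFII from the pX2-168 reporter plasmid.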
T3 sequence (P24468 whole entry): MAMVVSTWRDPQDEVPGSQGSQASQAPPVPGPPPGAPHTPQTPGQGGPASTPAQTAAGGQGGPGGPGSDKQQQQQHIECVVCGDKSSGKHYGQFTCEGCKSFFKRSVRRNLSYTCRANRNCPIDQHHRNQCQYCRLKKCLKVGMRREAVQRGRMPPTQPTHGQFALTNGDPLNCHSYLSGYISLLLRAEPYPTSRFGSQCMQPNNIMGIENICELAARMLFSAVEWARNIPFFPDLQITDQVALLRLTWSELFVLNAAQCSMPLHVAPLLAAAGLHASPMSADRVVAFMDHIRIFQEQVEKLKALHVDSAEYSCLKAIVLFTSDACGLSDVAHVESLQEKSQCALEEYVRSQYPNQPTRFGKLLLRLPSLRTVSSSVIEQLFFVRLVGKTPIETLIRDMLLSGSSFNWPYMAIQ
In words: Luminescence-based cell-based high throughput dose response assay to identify inhibitors of COUP-TFII (NR2F2). The class given is functional.

The next series addresses Cytochrome P450 2D6 (Homo sapiens, UniProt P10635).
In series [11] the test system is Vero. In words: cells. The class given is functional, cell-based. The settings on record: Chlorocebus sabaeus.
The subject of series [12] is Vero. In words: cells. It counts as functional. The settings on record: Chlorocebus sabaeus.
The next series deals with Cytochrome P450 2C9 (Homo sapiens, UniProt P11712).
The target of another series is T4, Cytochrome P450 1A2 (Homo sapiens, UniProt P05177).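 Also: PubChem cytochrome P450 panel assay, CYP1A2 panel member.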
T4 sequence (P05177 whole entry): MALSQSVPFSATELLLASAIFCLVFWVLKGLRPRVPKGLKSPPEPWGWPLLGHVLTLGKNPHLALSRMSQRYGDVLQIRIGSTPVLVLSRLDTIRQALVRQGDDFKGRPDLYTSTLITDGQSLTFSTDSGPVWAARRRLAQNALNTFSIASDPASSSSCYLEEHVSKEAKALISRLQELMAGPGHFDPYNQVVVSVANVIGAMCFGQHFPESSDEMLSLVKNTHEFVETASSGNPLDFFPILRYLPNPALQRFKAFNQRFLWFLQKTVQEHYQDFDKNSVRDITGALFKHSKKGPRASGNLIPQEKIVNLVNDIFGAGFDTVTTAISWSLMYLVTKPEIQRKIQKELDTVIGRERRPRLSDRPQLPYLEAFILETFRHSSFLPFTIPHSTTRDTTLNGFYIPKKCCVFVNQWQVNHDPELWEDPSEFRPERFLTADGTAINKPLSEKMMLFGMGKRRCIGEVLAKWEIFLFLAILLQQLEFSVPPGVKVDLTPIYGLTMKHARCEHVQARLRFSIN

Series [13] concerns the target SWI/SNF-related matrix-associated actin-dependent regulator of chromatin subfamily A member 2 (Homo sapiens, UniProt P51531). In words: Luminescence-based cell-based high throughput dose response assay to identify activators of the function of SWI/SNF related, matrix associated, actin dependent regulator of chromatin, subfamily a, member 2 (SMARCA2, BRM). The class given is functional.

The target of the next series is T5, CAAX prenyl protease 2 (Homo sapiens, UniProt Q9Y256).
T5 sequence (Q9Y256 whole entry): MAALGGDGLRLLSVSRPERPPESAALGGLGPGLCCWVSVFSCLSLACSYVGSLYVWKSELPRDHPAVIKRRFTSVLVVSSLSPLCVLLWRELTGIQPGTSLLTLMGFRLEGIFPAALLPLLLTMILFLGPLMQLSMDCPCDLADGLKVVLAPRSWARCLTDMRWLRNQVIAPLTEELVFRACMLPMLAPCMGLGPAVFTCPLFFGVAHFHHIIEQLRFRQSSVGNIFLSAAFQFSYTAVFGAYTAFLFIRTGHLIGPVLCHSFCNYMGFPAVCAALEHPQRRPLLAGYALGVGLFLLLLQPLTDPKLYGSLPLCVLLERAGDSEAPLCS
In words: human Rce1 protease inhibitors, dose response, biochemical, yeast membranes, quenched-peptide fluorescence, cherry-pick (AID 588849).

Another series addresses Trypsin (Sus scrofa, UniProt P00761). In words: porcine trypsin inhibitors, dose response, selectivity assay for Rce1 protease inhibitor project, biochemical, quenched peptide fluorescence, cherry-pick (AID 488789).
Series [14] can be described thus: HEp-2 cell cytotoxicity, dose response, cytotoxicity control for RSV inhibitor project, HTS (AID 2410). The settings on record: human respiratory syncytial virus. It counts as functional.
A short description of series [15]: Counterscreen for activators of the function of SWI/SNF related, matrix associated, actin dependent regulator of chromatin, subfamily a, member 2 (SMARCA2, BRM): Luminescence-based cell-based high throughput dose response assay to identify non-selective compounds using the VP16 reporter assay. It counts as functional.
The target of another series is T6, CAAX prenyl protease 1 (Saccharomyces cerevisiae S288c, UniProt P47154).
T6 sequence (P47154 whole entry): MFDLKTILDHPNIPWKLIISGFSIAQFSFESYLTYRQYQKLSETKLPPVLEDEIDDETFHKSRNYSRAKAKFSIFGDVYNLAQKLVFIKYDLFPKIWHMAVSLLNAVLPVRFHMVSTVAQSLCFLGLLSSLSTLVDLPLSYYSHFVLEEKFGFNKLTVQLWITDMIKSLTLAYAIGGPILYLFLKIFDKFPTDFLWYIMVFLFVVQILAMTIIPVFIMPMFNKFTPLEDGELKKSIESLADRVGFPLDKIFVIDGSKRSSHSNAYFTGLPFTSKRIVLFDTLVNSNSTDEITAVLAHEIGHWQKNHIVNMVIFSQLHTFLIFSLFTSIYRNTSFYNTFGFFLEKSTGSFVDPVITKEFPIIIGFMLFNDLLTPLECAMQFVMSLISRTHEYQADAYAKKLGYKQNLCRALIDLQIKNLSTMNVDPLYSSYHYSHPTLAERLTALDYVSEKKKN
In words: Ste24 protease inhibitors, dose response, biochemical, S. cerevisiae, plate reader, cherry-pick (AID 488815).

Each structure is given as a SMILES string. Activity calls are given as the source filed them.

As usually defined, the IC50 is the concentration needed to halve the response being measured. As a reminder, the EC50 is the concentration at which the effect is half-maximal. The term AC50 denotes the concentration at which the activity in the assay is half-maximal. As a reminder, the CC50 is the concentration that lowers cell viability or growth by half.

Chain of Cytochrome P450 2D6 (P10635 whole entry): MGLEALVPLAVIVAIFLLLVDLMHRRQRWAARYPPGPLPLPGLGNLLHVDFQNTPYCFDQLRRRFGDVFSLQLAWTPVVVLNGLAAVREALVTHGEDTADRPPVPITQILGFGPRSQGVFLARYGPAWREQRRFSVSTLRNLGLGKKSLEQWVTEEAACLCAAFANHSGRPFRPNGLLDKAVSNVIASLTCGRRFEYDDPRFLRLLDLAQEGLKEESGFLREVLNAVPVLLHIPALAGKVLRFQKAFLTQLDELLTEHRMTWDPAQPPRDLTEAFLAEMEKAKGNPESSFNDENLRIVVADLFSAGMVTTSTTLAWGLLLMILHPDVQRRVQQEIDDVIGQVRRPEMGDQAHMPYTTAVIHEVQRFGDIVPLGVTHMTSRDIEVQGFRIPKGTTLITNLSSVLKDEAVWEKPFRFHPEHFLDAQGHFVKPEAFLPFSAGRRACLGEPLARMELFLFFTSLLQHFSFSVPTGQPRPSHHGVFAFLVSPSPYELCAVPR
Chain of SWI/SNF-related matrix-associated actin-dependent regulator of chromatin subfamily A member 2 (P51531 whole entry): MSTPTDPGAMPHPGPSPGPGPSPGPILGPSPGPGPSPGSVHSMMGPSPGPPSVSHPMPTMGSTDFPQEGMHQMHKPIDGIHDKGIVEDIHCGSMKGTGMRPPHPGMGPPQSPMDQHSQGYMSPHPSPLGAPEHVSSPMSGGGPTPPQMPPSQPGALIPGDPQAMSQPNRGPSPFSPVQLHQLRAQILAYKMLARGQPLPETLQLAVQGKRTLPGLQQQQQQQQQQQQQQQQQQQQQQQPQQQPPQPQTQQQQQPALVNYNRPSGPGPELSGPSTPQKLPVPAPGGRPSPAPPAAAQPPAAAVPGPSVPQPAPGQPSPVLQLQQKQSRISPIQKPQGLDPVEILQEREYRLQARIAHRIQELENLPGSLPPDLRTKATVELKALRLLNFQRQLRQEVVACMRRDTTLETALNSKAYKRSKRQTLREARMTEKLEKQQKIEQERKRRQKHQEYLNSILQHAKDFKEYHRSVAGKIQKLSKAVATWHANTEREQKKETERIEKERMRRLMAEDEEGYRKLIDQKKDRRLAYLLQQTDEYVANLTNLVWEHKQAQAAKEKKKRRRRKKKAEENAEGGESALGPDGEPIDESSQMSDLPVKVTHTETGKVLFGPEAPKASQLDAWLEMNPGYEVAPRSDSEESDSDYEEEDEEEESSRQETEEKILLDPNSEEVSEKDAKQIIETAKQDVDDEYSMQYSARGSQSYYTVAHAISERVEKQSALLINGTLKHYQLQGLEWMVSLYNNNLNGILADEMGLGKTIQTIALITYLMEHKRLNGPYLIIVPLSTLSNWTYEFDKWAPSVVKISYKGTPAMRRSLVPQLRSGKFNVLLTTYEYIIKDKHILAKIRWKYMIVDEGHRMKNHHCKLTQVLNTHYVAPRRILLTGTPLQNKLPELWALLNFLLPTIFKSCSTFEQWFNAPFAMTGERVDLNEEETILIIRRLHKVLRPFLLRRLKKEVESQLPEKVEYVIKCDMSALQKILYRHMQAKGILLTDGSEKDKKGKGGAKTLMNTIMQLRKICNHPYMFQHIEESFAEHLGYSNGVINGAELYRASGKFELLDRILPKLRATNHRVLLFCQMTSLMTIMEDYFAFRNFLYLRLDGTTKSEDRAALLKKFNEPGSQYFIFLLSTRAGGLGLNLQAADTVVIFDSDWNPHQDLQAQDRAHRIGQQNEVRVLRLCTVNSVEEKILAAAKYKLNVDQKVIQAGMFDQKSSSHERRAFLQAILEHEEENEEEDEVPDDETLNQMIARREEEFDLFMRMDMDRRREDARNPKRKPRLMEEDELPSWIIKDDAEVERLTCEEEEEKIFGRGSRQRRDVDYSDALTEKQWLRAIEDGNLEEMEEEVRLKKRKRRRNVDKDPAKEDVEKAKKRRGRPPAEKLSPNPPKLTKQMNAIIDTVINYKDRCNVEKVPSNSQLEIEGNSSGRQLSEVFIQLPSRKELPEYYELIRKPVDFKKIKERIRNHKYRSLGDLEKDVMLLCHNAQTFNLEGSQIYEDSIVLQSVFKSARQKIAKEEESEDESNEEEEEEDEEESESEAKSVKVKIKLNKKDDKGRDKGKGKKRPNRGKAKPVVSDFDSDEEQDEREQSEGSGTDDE
Chain of Tumor necrosis factor (P01375 whole entry): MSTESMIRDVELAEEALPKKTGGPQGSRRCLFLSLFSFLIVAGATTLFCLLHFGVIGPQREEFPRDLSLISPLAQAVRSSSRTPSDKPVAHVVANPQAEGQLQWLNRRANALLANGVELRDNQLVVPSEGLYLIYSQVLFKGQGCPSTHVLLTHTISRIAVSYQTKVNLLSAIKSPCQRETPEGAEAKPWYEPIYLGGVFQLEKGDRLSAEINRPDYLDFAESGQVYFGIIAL
Chain of Trypsin (P00761 whole entry): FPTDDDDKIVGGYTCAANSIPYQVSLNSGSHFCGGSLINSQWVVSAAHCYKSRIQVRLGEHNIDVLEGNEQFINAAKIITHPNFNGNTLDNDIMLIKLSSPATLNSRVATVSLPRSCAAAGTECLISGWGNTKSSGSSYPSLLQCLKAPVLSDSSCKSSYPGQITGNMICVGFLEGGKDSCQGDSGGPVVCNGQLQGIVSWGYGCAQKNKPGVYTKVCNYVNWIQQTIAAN
Chain of Cytochrome P450 2C9 (P11712 whole entry): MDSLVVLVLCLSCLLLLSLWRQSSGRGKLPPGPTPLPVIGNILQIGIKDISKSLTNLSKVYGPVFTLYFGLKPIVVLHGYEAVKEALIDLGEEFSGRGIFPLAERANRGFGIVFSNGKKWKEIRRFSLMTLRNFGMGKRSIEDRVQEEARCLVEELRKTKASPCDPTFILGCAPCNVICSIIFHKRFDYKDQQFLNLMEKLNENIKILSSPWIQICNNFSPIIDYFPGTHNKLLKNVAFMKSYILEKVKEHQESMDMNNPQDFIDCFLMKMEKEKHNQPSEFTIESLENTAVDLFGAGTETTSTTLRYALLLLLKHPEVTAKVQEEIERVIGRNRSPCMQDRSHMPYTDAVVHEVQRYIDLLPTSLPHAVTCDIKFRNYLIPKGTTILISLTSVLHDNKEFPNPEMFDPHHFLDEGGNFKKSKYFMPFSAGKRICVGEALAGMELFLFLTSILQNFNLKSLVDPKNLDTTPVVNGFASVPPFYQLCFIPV

Regarding `Cc1oc(-c2cccc3ccccc23)nc1CN1CCN(c2ncnc3ccccc23)CC1`, the half-inhibitory concentration (IC50) with HEK293 [1] was 4.08 µM (active); in the series on HEK293 [2], 3.28 µM (active); in the series with HEK293 [3] it was 6.63 µM (active); with HEK293 [4], > 20 µM (inactive); in [5], > 20 µM (inactive); on Tumor necrosis factor it was > 20 µM (inactive). Also, in the series with HEK293 [6], the EC50 is 7.79 µM (active).

As for `N=c1c2c(n(Cc3ccc(Cl)cc3)c3c1CCC3)CCC2`, the IC50 in the series on HEK293 [1] was 11.8 µM (active); in the series on HEK293 [2] it was 15.4 µM (inactive); with HEK293 [3], > 20 µM (inactive); in series [10] it was 9.25 µM (active). Further, the EC50 was 0.443 µM (active) in series [7], 7.5 µM (active) in [8], > 60 µM (not active) in [9] and 10.2 µM (active) with HEK293 [6].

For `COC(=O)C/C=C\[C@@H](C)[C@@H](/C=N\OC[C@@H](O)COCc1ccco1)OC`, the AC50 result at Cytochrome P450 2D6 is reported as “inconclusive”.

Turning to `COc1cc(C(=O)/C=C/c2cccnc2)ccc1O`, in the series on Vero [11], the IC50 is > 25 µM (active). Besides, in the series on Vero [12], the CC50 was 21.2 µM (active).

As for `COc1ccc(-n2nnnc2/C=C\Nc2ccccc2C(=O)c2ccccc2)cc1`, the AC50 result at Cytochrome P450 2C9 was “inconclusive”; at Cytochrome P450 1A2 it was 22.4 µM (inconclusive); on Cytochrome P450 2D6, “inconclusive”.

Turning to `CC[C@H]1CN(C)[C@H]2Cc3c([nH]c4ccccc34)C(=O)C[C@H]1[C@H]2C(=O)OC`, on Cytochrome P450 2D6, the AC50 entry is on record as “inconclusive”.

As to `NS(=O)(=O)c1ccc(N/N=C/c2cn(-c3ccccc3)nc2-c2cccs2)cc1`, the EC50 in [13] and in [15] was > 91.2 µM (inactive) in each case. Moreover, the values for the CC50 (in the series on Vero [12]; in series [14]) were 11.3 µM (active) and 12.2 µM (active), respectively. In addition, the AC50 on CAAX prenyl protease 2 is 16.7 µM (active); at Trypsin it was 7.03 µM (active); on CAAX prenyl protease 1 it was 7.44 µM (active).

These data come from ChEMBL document CHEMBL1201862, “PubChem BioAssay data set” (2004).
